Laboratory results reported in patent US8952024B2, “Herbicidal pyrimidone derivatives” (E I du Pont de Nemours and Company, priority 2009, dated 2015).

Legend:
Type in all cases: in vivo
[1] = test system: giant foxtail (Setaria faberii); experiment: Test B pre-/postemergence plant response; details: Postemergence
How it was run: (§1)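 Visual injury, 0–100 scale (100 = complete control), rated against controls after 13 to 15 days in greenhouse. Pre-emergence: seeds in loam/sand soil, treated at planting. Post-emergence: 1- to 4-leaf plants (2 to 18 cm) in peat/vermiculite medium. Compounds formulated in non-phytotoxic solvent with surfactant.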

[2] = test system: green foxtail (Setaria viridis); experiment: Test B pre-/postemergence plant response; details: Postemergence
How it was run: as §1

soybean (Glycine max) = experiment: Test B pre-/postemergence plant response; details: Postemergence
How it was run: as §1

[3] = test system: cocklebur (Xanthium strumarium); experiment: Test B pre-/postemergence plant response; details: Postemergence
How it was run: as §1

corn (Zea mays) = experiment: Test B pre-/postemergence plant response; details: Postemergence
How it was run: as §1

[4] = test system: johnsongrass (Sorghum halepense); experiment: Test B pre-/postemergence plant response; details: Postemergence
How it was run: as §1

[5] = test system: bermudagrass (Cynodon dactylon); experiment: Test B pre-/postemergence plant response; details: for Plant response rating, Bermudagrass: Postemergence
How it was run: as §1

[6] = test system: ragweed (common ragweed, Ambrosia elatior); experiment: Test B pre-/postemergence plant response; details: Postemergence
How it was run: as §1

[7] = test system: pigweed (Amaranthus retroflexus); experiment: Test B pre-/postemergence plant response; details: Postemergence
How it was run: as §1

kochia (Kochia scoparia) = experiment: Test B pre-/postemergence plant response; details: Postemergence
How it was run: as §1

[8] = test system: lambsquarters (Chenopodium album); experiment: Test B pre-/postemergence plant response; details: Postemergence
How it was run: as §1

wild oat (Avena fatua) = experiment: Test B pre-/postemergence plant response; details: Postemergence
How it was run: as §1

[9] = test system: barnyardgrass (Echinochloa crus-galli); experiment: Test B flooded paddy test; details: for Plant response rating, Barnyardgrass: Flood (flooded paddy test), 13 to 15 days
How it was run: (§2)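 Each compound is added to standing floodwater (3 cm above soil, maintained) in pots of 2-leaf-stage plants; greenhouse exposure lasts 13–15 d before visual comparison with controls on a 0–100 control scale.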

[10] = test system: umbrella sedge (Cyperus difformis); experiment: Test B flooded paddy test; details: for Plant response rating, Sedge, Umbrella: Flood (flooded paddy test), 13 to 15 days
How it was run: as §2

rice (Oryza sativa) = experiment: Test B flooded paddy test; details: for Plant response rating, Rice: Flood (flooded paddy test), 13 to 15 days
How it was run: as §2

[11] = test system: ducksalad (Heteranthera limosa); experiment: Test B flooded paddy test; details: for Plant response rating, Ducksalad: Flood (flooded paddy test), 13 to 15 days
How it was run: as §2

[12] = 31 g ai/ha, 0 to 100 scale (0 no effect, 100 complete control)
[13] = 125 g ai/ha, scale 0 to 100 (0 no effect, 100 complete control)
[14] = 250 g ai/ha, scale 0 to 100 (0 no effect, 100 complete control), 13 to 15 days
[15] = 250 g ai/ha, flooded paddy test, visual rating on 0 to 100 scale (0 no effect, 100 complete control) after 13 to 15 days
[16] = 62 g ai/ha, scale of 0 to 100 where 0 is no effect and 100 is complete control
[17] = 125 g ai/ha, scale 0 to 100, 0 is no effect, 100 is complete control
[18] = Flood, 31 g ai/ha, scale 0 to 100 (0 no effect, 100 complete control)

Cc1ccc(-n2c(-c3cc(F)cc(F)c3)ncc(C(=O)C3=C(O)CCCC3=O)c2=O)cc1 [Compound 162]
95: Bermudagrass plant response rating (0 to 100 scale) ([5]; 62 g ai/ha, postemergence, 0 is no effect, 100 is complete control, 13 to 15 days) | Sedge, Umbrella plant response rating [10, 18]
75: Plant response rating, Kochia (kochia (Kochia scoparia); [13])
35: Plant response rating, Oat, Wild (wild oat (Avena fatua); [12])
90: Plant response rating, Ragweed [6, 12] | Plant response rating, Flood, Rice (rice (Oryza sativa); [15]) | Plant response rating, Rice (rice (Oryza sativa); [17])
85: Plant response rating, Foxtail, Giant [1, 12] | Plant response rating, Corn (corn (Zea mays); [14]) | Plant response rating, Bermudagrass [5, 12]
40: Plant response rating, Barnyardgrass [9, 17]
98: Plant response rating, Foxtail, Giant [1, 13] | Plant response rating, Foxtail, Giant [1, 14] | Plant response rating, Foxtail, Green [2, 12] | Plant response rating, Foxtail, Green [2, 13] | Plant response rating, Soybean (soybean (Glycine max); [12]) | Plant response rating, Johnsongrass [4, 12] | Plant response rating, Lambsquarters [8, 13] | Ducksalad plant response rating [11, 18]
25: Plant response rating, Barnyardgrass [9, 16] | Plant response rating, Rice (rice (Oryza sativa); [16])
0: Rice plant response rating (rice (Oryza sativa); [18])
55: Plant response rating, Oat, Wild (wild oat (Avena fatua); [14]) | Plant response rating, Flood, Barnyardgrass [9, 15]
20: Plant response rating, Kochia (kochia (Kochia scoparia); [12]) | Barnyardgrass plant response rating [9, 18]
45: Plant response rating, Oat, Wild (wild oat (Avena fatua); [13])
80: Plant response rating, Corn (corn (Zea mays); [13]) | Plant response rating, Kochia (kochia (Kochia scoparia); [14]) | Plant response rating, Lambsquarters [8, 12]
50: Plant response rating, Corn (corn (Zea mays); [12])
100: Plant response rating, Foxtail, Green [2, 14] | Plant response rating, Soybean (soybean (Glycine max); [13]) | Plant response rating, Soybean (soybean (Glycine max); [14]) | Plant response rating, Cocklebur [3, 12] | Plant response rating, Cocklebur [3, 13] | Plant response rating, Cocklebur [3, 14] | Plant response rating, Johnsongrass [4, 13] | Plant response rating, Johnsongrass [4, 14] | Plant response rating, Bermudagrass [5, 13] | Plant response rating, Bermudagrass [5, 14] | Plant response rating, Ragweed [6, 13] | Plant response rating, Ragweed [6, 14] | Plant response rating, Pigweed [7, 12] | Plant response rating, Pigweed [7, 13] | Plant response rating, Pigweed [7, 14] | Plant response rating, Lambsquarters [8, 14] | Plant response rating, Flood, Sedge, Umbrella [10, 15] | Plant response rating, Sedge, Umbrella [10, 16] | Plant response rating, Sedge, Umbrella [10, 17] | Plant response rating, Flood, Ducksalad [11, 15] | Plant response rating, Ducksalad [11, 16] | Plant response rating, Ducksalad [11, 17]
